{"source": "patent US20050163814A1", "about": "“Granulated phosphoroamido(di) thioates” (priority 2002, published 2005)", "assay_type_in_all_cases": "physicochemical", "key": {"[1]": {"test": "GE Brightness of acephate powder", "conditions": "bulk powder, reflected light", "method": "A sample of technical grade acephate crystals was obtained (Examples 1 and 3) and compared. […] Half of each sample was analyzed for brightness and particle size distribution.\nMilling caused a measurable increase in the brightness of the bulk powder sample as measured by reflected light. Such an increase is visually apparent as a noticeably brighter powder when compared side-by-side under the GE Brightness test."}, "[2]": {"test": "Particle size distribution (sieve openings) of acephate technical", "method": "The other half of the Source B sample was analyzed for particle size distribution as received and with the milling according to the invention. FIG. 1 (unmilled) and FIG. 2 (milled) are graphs of the particle size distributions from the milling process. All values are in terms of weight percent of total sample that could pass through the designated sieve opening."}, "[3]": {"test": "Crystal dimensions by visual inspection", "text": "The unmilled acephate from example 3 was a commercially available technical grade having elongated cylindrical shaped crystals with an average crystal length of 250-500 μm and an average width of 40-100 μm. In contrast, the acephate powder of example 4 was made of substantially cylindrical shaped crystals with an average crystal length of less than about 150 μm and an average width of less than 40 μm."}}, "note": "Values joined by “and” are separate entries in the source; they are usually repeats but may differ in a detail not shown here. Equal entries are not always repeated. Marks after values point to notes of the source that are not given here."}
{"smiles": "COP(=O)(NC(C)=O)SC", "note": "(stereo not shown) [Ex. 4, acephate]", "values": [{"measurement": "GE Brightness", "setting": "[1]", "value": 93.7}, {"measurement": "Summary Particle Size Distribution, Range", "setting": "[2]; Sieve Size 2.3-3.9 μm, listed as Milled", "value": 15.26, "unit": "wt %"}, {"measurement": "Summary Particle Size Distribution, Range", "setting": "[2]; Sieve Size 4.6-16 μm, listed as Milled", "value": 41.93, "unit": "wt %"}, {"measurement": "Summary Particle Size Distribution, Range", "setting": "[2]; Sieve Size 4.6-37 μm, listed as Milled", "value": 62.09, "unit": "wt %"}, {"measurement": "Summary Particle Size Distribution, Range", "setting": "[2]; Sieve Size 4.6-88 μm, listed as Milled", "value": 71.47, "unit": "wt %"}, {"measurement": "Summary Particle Size Distribution, Range", "setting": "[2]; Sieve Size 19-37 μm, listed as Milled", "value": 20.16, "unit": "wt %"}, {"measurement": "Summary Particle Size Distribution, Range", "setting": "[2]; Sieve Size 44-88 μm, listed as Milled", "value": 9.39, "unit": "wt %"}, {"measurement": "Summary Particle Size Distribution, Range", "setting": "[2]; Sieve Size 105-149 μm, listed as Milled", "value": 1.38, "unit": "wt %"}, {"measurement": "Summary Particle Size Distribution, Range", "setting": "[2]; Sieve Size <1.9 μm, listed as Milled", "value": 11.73, "unit": "wt %"}, {"measurement": "Summary Particle Size Distribution, Range", "setting": "[2]; Sieve Size <3.9 μm, listed as Milled", "value": 26.99, "unit": "wt %"}, {"measurement": "Summary Particle Size Distribution, Range", "setting": "[2]; Sieve Size >105 μm, listed as Milled", "value": "1.54 wt % and 1.68 wt %"}, {"measurement": "Summary Particle Size Distribution, Range", "setting": "[2]; Sieve Size >177 μm, listed as Milled", "value": 0.30, "unit": "wt %"}, {"measurement": "Particle Size Distribution", "setting": "[2]; Size 1.9 μm, listed as Milled", "value": 3.7746, "unit": "weight percent"}, {"measurement": "Particle Size Distribution", "setting": "[2]; Size 2.3 μm, listed as Milled", "value": 1.8957, "unit": "weight percent"}, {"measurement": "Particle Size Distribution", "setting": "[2]; Size 2.8 μm, listed as Milled", "value": 3.9085, "unit": "weight percent"}, {"measurement": "Particle Size Distribution", "setting": "[2]; Size 3.3 μm, listed as Milled", "value": 4.3981, "unit": "weight percent"}, {"measurement": "Particle Size Distribution", "setting": "[2]; Size 3.9 μm, listed as Milled", "value": 5.0539, "unit": "weight percent"}, {"measurement": "Particle Size Distribution", "setting": "[2]; Size 4.6 μm, listed as Milled", "value": 4.0079, "unit": "weight percent"}, {"measurement": "Particle Size Distribution", "setting": "[2]; Size 5.5 μm, listed as Milled", "value": 4.6002, "unit": "weight percent"}, {"measurement": "Particle Size Distribution", "setting": "[2]; Size 6.5 μm, listed as Milled", "value": 5.3931, "unit": "weight percent"}, {"measurement": "Particle Size Distribution", "setting": "[2]; Size 7.8 μm, listed as Milled", "value": 5.6669, "unit": "weight percent"}, {"measurement": "Particle Size Distribution", "setting": "[2]; Size 9.2 μm, listed as Milled", "value": 6.1254, "unit": "weight percent"}, {"measurement": "Particle Size Distribution", "setting": "[2]; Size 11 μm, listed as Milled", "value": 6.0030, "unit": "weight percent"}, {"measurement": "Particle Size Distribution", "setting": "[2]; Size 13 μm, listed as Milled", "value": 5.4418, "unit": "weight percent"}, {"measurement": "Particle Size Distribution", "setting": "[2]; Size 16 μm, listed as Milled", "value": 4.6925, "unit": "weight percent"}, {"measurement": "Particle Size Distribution", "setting": "[2]; Size 19 μm, listed as Milled", "value": 4.8575, "unit": "weight percent"}, {"measurement": "Particle Size Distribution", "setting": "[2]; Size 22 μm, listed as Milled", "value": 4.9085, "unit": "weight percent"}, {"measurement": "Particle Size Distribution", "setting": "[2]; Size 26 μm, listed as Milled", "value": 4.4529, "unit": "weight percent"}, {"measurement": "Particle Size Distribution", "setting": "[2]; Size 31 μm, listed as Milled", "value": 3.4498, "unit": "weight percent"}, {"measurement": "Particle Size Distribution", "setting": "[2]; Size 37 μm, listed as Milled", "value": 2.4873, "unit": "weight percent"}, {"measurement": "Particle Size Distribution", "setting": "[2]; Size 44 μm, listed as Milled", "value": 2.0818, "unit": "weight percent"}, {"measurement": "Particle Size Distribution", "setting": "[2]; Size 53 μm, listed as Milled", "value": 2.3280, "unit": "weight percent"}, {"measurement": "Particle Size Distribution", "setting": "[2]; Size 63 μm, listed as Milled", "value": 2.2067, "unit": "weight percent"}, {"measurement": "Particle Size Distribution", "setting": "[2]; Size 75 μm, listed as Milled", "value": 1.5439, "unit": "weight percent"}, {"measurement": "Particle Size Distribution", "setting": "[2]; Size 88 μm, listed as Milled", "value": 1.2313, "unit": "weight percent"}, {"measurement": "Particle Size Distribution", "setting": "[2]; Size 105 μm, listed as Milled", "value": 0.8371, "unit": "weight percent"}, {"measurement": "Particle Size Distribution", "setting": "[2]; Size 125 μm, listed as Milled", "value": 0.4144, "unit": "weight percent"}, {"measurement": "Particle Size Distribution", "setting": "[2]; Size 149 μm, listed as Milled", "value": 0.1331, "unit": "weight percent"}, {"measurement": "Particle Size Distribution", "setting": "[2]; Size 177 μm, listed as Milled", "value": 0.1199, "unit": "weight percent"}, {"measurement": "Particle Size Distribution", "setting": "[2]; Size 210 μm, listed as Milled", "value": 0.0486, "unit": "weight percent"}, {"measurement": "Particle Size Distribution", "setting": "[2]; Size 250 μm, listed as Milled", "value": 0.132, "unit": "weight percent"}, {"measurement": "Particle Size Distribution", "setting": "[2]; Size 298 μm, listed as Milled", "value": 0.0000, "unit": "weight percent"}, {"measurement": "Particle Size Distribution", "setting": "[2]; Size <1.9 μm, listed as Milled", "value": 7.9543, "unit": "weight percent"}, {"measurement": "Particle Size Distribution", "setting": "[2]; Size >298 μm, listed as Milled", "value": 0.0000, "unit": "weight percent"}, {"measurement": "mean particle size", "setting": "[2]; listed as Milled", "value": 19.1, "unit": "μm"}, {"measurement": "median particle size", "setting": "[2]; listed as Milled", "value": 10.3, "unit": "μm"}, {"measurement": "Summary Particle Size Distribution, Cumul.", "setting": "[2]; up to Sieve Size 2.3-3.9 μm, listed as Milled", "value": 26.99, "unit": "wt %"}, {"measurement": "Summary Particle Size Distribution, Cumul.", "setting": "[2]; up to Sieve Size 4.6-16 μm, listed as Milled", "value": 68.92, "unit": "wt %"}, {"measurement": "Summary Particle Size Distribution, Cumul.", "setting": "[2]; up to Sieve Size 19-37 μm, listed as Milled", "value": 89.07, "unit": "wt %"}, {"measurement": "Summary Particle Size Distribution, Cumul.", "setting": "[2]; up to Sieve Size 44-88 μm, listed as Milled", "value": 98.46, "unit": "wt %"}, {"measurement": "Summary Particle Size Distribution, Cumul.", "setting": "[2]; up to Sieve Size 105-149 μm, listed as Milled", "value": 99.85, "unit": "wt %"}, {"measurement": "Summary Particle Size Distribution, Cumul.", "setting": "[2]; up to Sieve Size <1.9 μm, listed as Milled", "value": 11.73, "unit": "wt %"}, {"measurement": "Summary Particle Size Distribution, Cumul.", "setting": "[2]; up to Sieve Size >177 μm, subject to rounding", "value": "˜100* wt %"}, {"measurement": "Crystal dimensions: length", "setting": "[3]; Table 4, listed as Milled", "value": "40-90 μm"}, {"measurement": "Crystal dimensions: width", "setting": "[3]; Table 4, listed as Milled", "value": "20-25 μm"}, {"measurement": "Aspect ratio", "setting": "[3]; length:width, listed as Milled", "value": "2-3.6"}, {"measurement": "average crystal length", "setting": "[3]; visual inspection", "value": "less than 150 μm"}, {"measurement": "average width", "setting": "[3]; visual inspection", "value": "less than 40 μm"}]}
